Measured values reported in EP4707277A1, “NOVEL HETEROCYCLIC AMINE DERIVATIVES AND PHARMACEUTICAL COMPOSITION COMPRISING SAME” (Daewoong Pharmaceutical Co., Ltd., priority 2023, dated 2024).
Like-named read-outs stand apart in the source and are kept apart here.

What was measured:
ITK = target: T1, ITK (Homo sapiens, UniProt Q08881); assay: Inhibitory activity against ITK, ADP-Glo Kinase system (Promega); assay type: biochemical
T1 construct: purchased Signalchem I13-11G-10
T1 sequence (Q08881 1-620): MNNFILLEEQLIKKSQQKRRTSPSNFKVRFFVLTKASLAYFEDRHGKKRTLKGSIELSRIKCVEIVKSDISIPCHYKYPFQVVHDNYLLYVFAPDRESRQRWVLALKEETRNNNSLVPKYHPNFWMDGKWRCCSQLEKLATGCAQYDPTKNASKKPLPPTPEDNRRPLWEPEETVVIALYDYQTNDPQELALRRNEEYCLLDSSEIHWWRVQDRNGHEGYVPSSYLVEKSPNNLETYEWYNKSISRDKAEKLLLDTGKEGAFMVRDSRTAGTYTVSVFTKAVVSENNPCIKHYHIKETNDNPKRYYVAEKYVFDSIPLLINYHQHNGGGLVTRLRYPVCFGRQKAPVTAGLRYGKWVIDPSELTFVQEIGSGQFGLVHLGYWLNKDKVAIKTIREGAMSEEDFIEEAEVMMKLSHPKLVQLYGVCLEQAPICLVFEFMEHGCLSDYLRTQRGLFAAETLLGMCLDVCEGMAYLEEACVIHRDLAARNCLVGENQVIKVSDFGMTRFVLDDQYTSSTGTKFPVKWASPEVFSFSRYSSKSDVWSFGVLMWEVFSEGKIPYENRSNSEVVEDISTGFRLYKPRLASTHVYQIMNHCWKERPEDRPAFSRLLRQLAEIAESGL
Procedure, shortened: (§1)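 ADP-Glo luminescent ADP detection with recombinant human ITK (4 ng/reaction) or BTK (10 ng/reaction) and poly(Glu4,Tyr1) substrate at 0.2 µg/µl. Buffer: Tris pH 7.5, MgCl2, MnCl2, BSA, DTT. ATP 1 mM or Km (BTK 10 µM, ITK 25 µM); 1% DMSO; 1 h at 30°C; IC50 from curve fit.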

BTK = target: T2, BTK (Homo sapiens, UniProt Q06187); assay: Inhibitory activity against BTK, ADP-Glo Kinase system (Promega); assay type: biochemical
T2 construct: purchased Signalchem B10-10H
Procedure, shortened: as §1

[1] = 1mM ATP, read-out: ITK IC50(nM) 1mM ATP
[2] = 1mM ATP, read-out: BTK IC50(nM) 1mM ATP
[3] = Km ATP (ITK: 25uM), read-out: ITK IC50(nM) Km ATP
[4] = Km ATP (BTK: 10 uM), read-out: BTK IC50(nM) Km ATP

T2 sequence (Q06187 whole entry): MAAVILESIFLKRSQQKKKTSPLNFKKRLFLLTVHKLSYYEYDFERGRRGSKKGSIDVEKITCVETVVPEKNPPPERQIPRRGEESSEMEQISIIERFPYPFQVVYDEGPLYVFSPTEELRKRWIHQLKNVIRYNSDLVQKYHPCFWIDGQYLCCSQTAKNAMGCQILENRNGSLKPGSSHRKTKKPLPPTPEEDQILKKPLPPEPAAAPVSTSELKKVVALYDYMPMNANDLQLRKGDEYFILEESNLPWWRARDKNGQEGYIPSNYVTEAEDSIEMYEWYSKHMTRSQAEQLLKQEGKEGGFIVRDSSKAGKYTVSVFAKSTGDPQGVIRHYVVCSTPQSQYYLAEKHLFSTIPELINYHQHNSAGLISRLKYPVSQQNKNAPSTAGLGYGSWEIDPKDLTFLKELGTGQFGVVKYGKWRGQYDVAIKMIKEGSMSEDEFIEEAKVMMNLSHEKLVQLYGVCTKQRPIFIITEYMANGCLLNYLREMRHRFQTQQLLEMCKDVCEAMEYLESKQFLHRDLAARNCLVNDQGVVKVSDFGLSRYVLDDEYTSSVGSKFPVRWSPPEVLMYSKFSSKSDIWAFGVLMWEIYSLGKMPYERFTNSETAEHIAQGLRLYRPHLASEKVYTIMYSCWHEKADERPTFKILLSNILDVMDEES

SMILES	IC50 (ITK; [1]) [nM]	IC50 (BTK; [2]) [nM]	IC50 (ITK; [3]) [nM]	IC50 (BTK; [4]) [nM]
C=CC(=O)N1C[C@H](F)[C@H](Oc2nc(Nc3ncc(C)s3)cc3c2ccn3CCF)C1 [Example 189, 1-((3S,4R)-3-fluoro-4-((1-(2-fluoroethyl)-6-((5-methylthiazol-2-yl)amino)-1H-pyrrolo[3,2-c]pyridin-4-yl)oxy)pyrrolidin-1-yl)prop-2-en-1-one]	≤ 20	≤ 20		
C=CC(=O)N1CCC[C@H](COc2nc(Nc3ncc(C)s3)cc3c2ccn3CC(C)C)C1 [Example 215, (S)-1-(3-(((1-isobutyl-6-((5-methylthiazol-2-yl)amino)-1H-pyrrolo[3,2-c]pyridin-4-yl)oxy)methyl)piperidin-1-yl)prop-2-en-1-one]	100 to 500	≤ 20		
C=CC(=O)N1C2C=C(c3nc(Nc4ncc(C)s4)cc4c3ccn4CC(C)C)CC1CCC2 (stereo not drawn) [Example 38, 1-(3-(1-isobutyl-6-((5-methylthiazol-2-yl)amino)-1H-pyrrolo[3,2-c]pyridin-4-yl)-9-azabicyclo[3.3.1]non-2-en-9-yl)prop-2-en-1-one]	≤ 20	≤ 20		
C=CC(=O)N1CC[C@H](Oc2nc(Nc3ncc(C)s3)cc3c2ccn3CCF)C1 [Example 188, (S)-1-(3-((1-(2-fluoroethyl)-6-((5-methylthiazol-2-yl)amino)-1H-pyrrolo[3,2-c]pyridin-4-yl)oxy)pyrrolidin-1-yl)prop-2-en-1-one]	≤ 20	≤ 20		
C=CC(=O)N1CC[C@H](Oc2nc(Nc3ncc(C)s3)cc3c2ccn3CCCF)C1 [Example 190, (S)-1-(3-((1-(3-fluoropropyl)-6-((5-methylthiazol-2-yl)amino)-1H-pyrrolo[3,2-c]pyridin-4-yl)oxy)pyrrolidin-1-yl)prop-2-en-1-one]	≤ 20	≤ 20		
C=CC(=O)N1CC[C@H](Oc2nc(Nc3ncc(C)s3)cc3c2ccn3CCOC)C1 [Example 127, (S)-1-(3-((1-(2-methoxyethyl)-6-((5-methylthiazol-2-yl)amino)-1H-pyrrolo[3,2-c]pyridin-4-yl)oxy)pyrrolidin-1-yl)prop-2-en-1-one]	≤ 20	≤ 20		
C=CC(=O)N1C[C@@H](F)[C@H](Oc2nc(Nc3ncc(C)s3)cc3c2ccn3CC2(C(F)(F)F)CC2)C1 [Example 120, 1-((3R,4R)-3-fluoro-4-((6-((5-methylthiazol-2-yl)amino)-1-((1-(trifluoromethyl)cyclopropyl)methyl)-1H-pyrrolo[3,2-c]pyridin-4-yl)oxy)pyrrolidin-1-yl)prop-2-en-1-one]			≤ 20	≤ 20
C=CC(=O)N1C[C@H](F)[C@H](Oc2nc(Nc3ncc(C)s3)cc3c2ccn3C)C1 [Example 131, 1-((3S,4R)-3-fluoro-4-((1-methyl-6-((5-methylthiazol-2-yl)amino)-1H-pyrrolo[3,2-c]pyridin-4-yl)oxy)pyrrolidin-1-yl)prop-2-en-1-one]	≤ 20	≤ 20		

Results, then the compound that gave them:

IC50 (ITK; [1]) [nM]	IC50 (BTK; [2]) [nM]	IC50 (ITK; [3]) [nM]	IC50 (BTK; [4]) [nM]	SMILES
≤ 20	≤ 20			C#CC(=O)N1CC[C@H](Oc2nc(Nc3ncc(C)s3)cc3c2ccn3CC(C)C)C1 [Example 225, (S)-1-(3-((1-isobutyl-6-((5-methylthiazol-2-yl)amino)-1H-pyrrolo[3,2-c]pyridin-4-yl)oxy)pyrrolidin-1-yl)prop-2-yn-1-one]
≤ 20	≤ 20			C=CC(=O)N1C[C@H](F)[C@H](Oc2nc(Nc3ncc(C)s3)cc3c2ccn3C2CCCC2)C1 [Example 109, 1-((3R,4S)-3-((1-cyclopentyl-6-((5-methylthiazol-2-yl)amino)-1H-pyrrolo[3,2-c]pyridin-4-yl)oxy)-4-fluoropyrrolidin-1-yl)prop-2-en-1-one]
20 to 100	≤ 20			C=CC(=O)Nc1ccc(F)c(-c2nc(Nc3ncc(C)s3)cc3c2ccn3[C@@H](C)CC)c1 [Example 68, (S)-N-(3-(1-(sec-butyl)-6-((5-methylthiazol-2-yl)amino)-1H-pyrrolo[3,2-c]pyridin-4-yl)-4-fluorophenyl)acrylamide]
≤ 20	≤ 20			C=CC(=O)N1C[C@@H](F)[C@H](Oc2nc(Nc3ncc(C)s3)cc3c2ccn3[C@@H](C)CC)C1 [Example 113, 1-((3R,4R)-3-((1-((S)-sec-butyl)-6-((5-methylthiazol-2-yl)amino)-1H-pyrrolo[3,2-c]pyridin-4-yl)oxy)-4-fluoropyrrolidin-1-yl)prop-2-en-1-one]
> 500	> 500			C=CC(=O)N1CC[C@H](Oc2nc(Nc3cccn(C)c3=O)cc3c2ccn3C(C)C)C1 [Example 198, (S)-3-((4-((1-acryloylpyrrolidin-3-yl)oxy)-1-isopropyl-1H-pyrrolo[3,2-c]pyridin-6-yl)amino)-1-methylpyridin-2(1H)-one]
		100 to 500	≤ 20	C=CC(=O)Nc1cc(C)cc(-c2nc(Nc3ncc(C)s3)cc3c2ccn3C)c1 [Example 53, N-(3-methyl-5-(1-methyl-6-((5-methylthiazol-2-yl)amino)-1H-pyrrolo[3,2-c]pyridin-4-yl)phenyl)acrylamide]
≤ 20	≤ 20			C=CC(=O)N1C[C@H](F)[C@H](Oc2nc(Nc3ncc(C)s3)cc3c2ccn3CC(C)CC)C1 (stereo partly drawn) [Example 171, 1-((3S,4R)-3-fluoro-4-((1-(2-methylbutyl)-6-((5-methylthiazol-2-yl)amino)-1H-pyrrolo[3,2-c]pyridin-4-yl)oxy)pyrrolidin-1-yl)prop-2-en-1-one]
		≤ 20	20 to 100	C=CC(=O)N1CC=C(c2nc(Nc3ncc(C)s3)cc3c2ccn3CCC(C)(C)C)CC1 [Example 18, 1-(4-(1-(3,3-dimethylbutyl)-6-((5-methylthiazol-2-yl)amino)-1H-pyrrolo[3,2-c]pyridin-4-yl)-3,6-dihydropyridin-1(2H)-yl)prop-2-en-1-one]
100 to 500	20 to 100			C=CC(=O)N1C[C@@H](Oc2nc(Nc3ncc(C)s3)cc3c2ccn3C2CCCC2)C[C@@H]1C [Example 164, 1-((2S,4S)-4-((1-cyclopentyl-6-((5-methylthiazol-2-yl)amino)-1H-pyrrolo[3,2-c]pyridin-4-yl)oxy)-2-methylpyrrolidin-1-yl)prop-2-en-1-one]
20 to 100	20 to 100	≤ 20	≤ 20	C=CC(=O)N1CC=C(c2nc(Nc3ncc(C)s3)cc3c2ccn3CC2CC2)CC1 [Example 4, 1-(4-(1-(cyclopropylmethyl)-6-((5-methylthiazol-2-yl)amino)-1H-pyrrolo[3,2-c]pyridin-4-yl)-3,6-dihydropyridin-1(2H)-yl)prop-2-en-1-one]
≤ 20	≤ 20			C=CC(=O)N1CC(C)(Oc2nc(Nc3ncc(C)s3)cc3c2ccn3C(C)C)C1 [Example 163, 1-(3-((1-isopropyl-6-((5-methylthiazol-2-yl)amino)-1H-pyrrolo[3,2-c]pyridin-4-yl)oxy)-3-methylazetidin-1-yl)prop-2-en-1-one]
≤ 20	≤ 20			C=CC(=O)N1C[C@H](F)[C@H](Oc2nc(Nc3ncc(C)s3)cc3c2ccn3C(C)C)C1 [Example 83, 1-((3S,4R)-3-fluoro-4-((1-isopropyl-6-((5-methylthiazol-2-yl)amino)-1H-pyrrolo[3,2-c]pyridin-4-yl)oxy)pyrrolidin-1-yl)prop-2-en-1-one]
